Source: PubChem BioAssay AID2305 (GlaxoSmithKline (GSK), 2010)

Tested on: P. falciparum 3D7 growth, pLDH absorbance
Experiment: P. falciparum 3D7 growth inhibition, dose response, strain 3D7 (AID 2305)

SMILES | IC50
O=C(Nc1cccc(F)c1)N(Cc1ccc(-c2cccc(CN3CCNCC3)c2)cc1)C1CCN(Cc2ccccc2)CC1 | 0.76 µM
Cc1cc(C(F)(F)F)n2nc(C(=O)N(C)Cc3cncn3Cc3ccc(F)cc3)cc2n1 | 0.83 µM
COc1ccc(-n2ccnc2SCC(=O)Nc2cc(C)ccc2C)c(OC)c1 | 0.2 µM
COCCNCc1cccc(-c2ccc3c(Nc4ccc(F)cc4Cl)ccnc3c2)c1 | 0.68 µM
O=C(Nc1ccc(C(F)(F)F)cc1)c1ccc(S(=O)(=O)NC2CCCN(CC3CCCCC3)C2)cc1 (centres undefined) | 0.72 µM
CCN(CC)CCn1c2ccccc2c2ccc(C(=O)Nc3ccc4sc(C)nc4c3)cc21 | 1.06 µM
CC(=O)Nc1ccc(S(=O)(=O)N2CCN(c3nc(NC4CCCC4)c4ccccc4n3)CC2)cc1 | 1.03 µM
Cc1noc(C)c1S(=O)(=O)N(C)Cc1ccc(-c2ccc(Cl)cc2)o1 | 0.36 µM
CCC[C@@H]([C@@H](CC1CCC(C)CC1)C(=O)N[C@@H](CO)C(=O)Nc1nccs1)N(O)C=O (some centres undefined) | 0.32 µM
CCOc1ccc(Br)cc1/C=C/C(=O)Nc1ccc(C2CCN(C)CC2)cc1 | 0.45 µM
COc1ccc(CNc2ccnc(-n3cnc4cc(C)c(C)cc43)n2)cc1Cl | 0.27 µM
COc1ccc(Nc2nccc(-c3ccc4ccnc(NCCCCN)c4c3)n2)cc1 | 0.75 µM
CCCNC[C@@H](O)[C@H](Cc1ccccc1)NC(=O)c1cc(NCC)cc(N2CCCCS2(=O)=O)c1 | 0.22 µM
CC(=O)N1N=C(c2ccccc2)Sc2c1nc(-c1ccc(Cl)cc1)n2C(C)=O | 0.99 µM
COc1ccc(C=C2SC(=O)NC2=Nc2ccccc2)c(OC)c1 | 0.47 µM
Cc1nnsc1C(=O)Nc1cccc(-c2cccc(-c3nc4ccccc4[nH]3)c2)c1 | 0.44 µM
COc1ccc2nccc(NN=Cc3ccccc3F)c2c1 | 0.62 µM
COC(=O)Cc1ccc(N)c2ccccc12 | 0.7 µM
CN(C)CCN(C)C(=O)c1cc(-c2ccncc2)c(-c2ccc(Cl)c(O)c2)o1 | 1.05 µM
COc1ccc2nc(C)cc(NCc3cccc4ccccc34)c2c1 | 0.22 µM
O=C(N[C@@H]1C[C@H]1c1ccccc1)N(CCCn1ccnc1)Cc1csc(-c2ccc(CNCc3ccccc3)cc2)n1 | 0.85 µM
O=C(NC1CCCCC1)N(Cc1ccc(-c2cccc(CNCc3ccc4c(c3)OCO4)c2)cc1)C1CCN(Cc2ccccc2)CC1 | 0.69 µM
CC(=O)Oc1c(C(=O)C2CCC(C(C)(C)C)CC2)c(OC(C)=O)c2ccccc2c1OC(C)=O (centres undefined) | 0.27 µM
COc1ccccc1C1CCN(C2CCC(NC(=O)/C=C/c3ccc(C(F)(F)F)cc3F)CC2)CC1 (centres undefined) | 0.99 µM
CN1CCN(CCCN(Cc2csc(-c3ccc(CNCc4ccccc4)cc3)n2)C(=O)c2cc(F)cc(F)c2)CC1 | 0.71 µM

SMILES | IC50
COc1ccc(CCNCCCCCCNCCc2ccc(Cl)c3ccccc23)cc1OC | 0.58 µM
CCOC(=O)c1cc(C(=O)NCCCCN2CCC(c3ccc4c(c3OC)CCCC4)CC2)ccc1-c1ccc(C(F)(F)F)cc1 | 0.71 µM
COC(=O)c1cccc(CNCc2ccc(-c3cccc(-c4nc5ccccc5[nH]4)c3)cc2)c1 | 0.26 µM
Oc1ccc(CCNCc2ccc(OCc3ccccc3)c(OCc3ccccc3)c2)cc1 | 1.51 µM
CCN(CC)c1nc(Nc2cc(C)ccc2C)nc(Nc2ccccc2O)n1 | 0.64 µM
O=[N+]([O-])c1ccc(C=NNc2nc3ccccc3[nH]2)cc1 | 0.28 µM
COc1ccc(NC(=O)[C@H](CC(C)C)Nc2cc(C)nc(NCc3ccccc3C)n2)cc1 | 0.89 µM
COc1ccc2ccccc2c1C=NNc1ccnc2ccc(F)cc12 | 1.11 µM
COc1cc(OC)cc(-c2nn(-c3ccc([N+](=O)[O-])cc3Cl)c(=S)n2CC2CCCO2)c1 (centres undefined) | 0.96 µM
CC1(C)N=C(N)N=C(N)C1c1ccc(Cl)c(Cl)c1 (centres undefined) | 0.03 µM
CCCNC(=O)C1CCN(C(c2ccc(Cl)cc2)c2ccc(Cl)cc2)CC1 | 0.48 µM
CC(=O)N(C)C1CCN(Cc2ccc(-c3ccc(-c4nc5ccc(F)cc5[nH]4)s3)cc2)C1 (centres undefined) | 0.97 µM
CN1CCCC1CCNc1ncc2c(-c3ccc(NC(=O)Nc4cc(C(F)(F)F)ccc4F)cc3)nn(C)c2n1 (centres undefined) | 0.34 µM
CN1CCC(N(Cc2ccc(-c3ccc(Cl)cc3)cc2)C(=O)Cn2c(CCc3cccc(F)c3F)cc(=O)c3ccccc32)CC1 | 0.86 µM
Cc1cccc2[nH]c(-c3ccc(-c4ccc(CN5CCN(c6cnccn6)CC5)cc4)s3)nc12 | 0.75 µM
Cc1[nH]c2cc(Cl)ccc2c1C1=CCN(CCCCC2(C)C(=O)Nc3c(F)cccc32)CC1 (centres undefined) | 0.84 µM
COc1ccc(NS(=O)(=O)c2cccc(C(=O)Nc3ccc(C(F)(F)F)cc3)c2)cc1N1CCN(CC(C)C)CC1 | 0.84 µM
Cc1cc(NC(=O)c2ccco2)ccc1OC1CCN(Cc2ccc(F)cc2)CC1 | 0.59 µM
CCOC(=O)[C@H](Cc1cc([N+](=O)[O-])c(Oc2ccc(OC)c(Cc3ccc(OC)c(C(C)C)c3)c2)c([N+](=O)[O-])c1)NC(=O)C(F)(F)F | 0.98 µM
CCN(CC)CCCNCc1ccc(-c2ccc(C(F)(F)F)cc2)cc1 | 0.99 µM
CCCNCc1ccc(-c2ccc(CN(CCOC)C(=O)COc3ccccc3Cl)cc2)nc1 | 0.91 µM
CCNc1cc(C(=O)N[C@@H](Cc2cc(F)cc(F)c2)[C@H](O)CNCc2cccc(C(F)(F)F)c2)cc(N2CCCCS2(=O)=O)c1 | 0.61 µM
O=C(Cc1ccccc1)NC1(c2ccccc2)CCN(CCc2c[nH]c3ccc(F)cc23)CC1 | 0.88 µM
CCCCN(C)CC#Cc1ccc(-c2ccc3[nH]c(C)c(Br)c(=O)c3c2)cn1 | 0.65 µM
N#Cc1cc([N+](=O)[O-])ccc1-n1nc(-c2cccc(Cl)c2)n(Cc2ccco2)c1=S | 0.2 µM

SMILES | IC50
COc1cc(C(=O)Nc2cccc(-c3nc4ccccc4[nH]3)c2)ccc1OC(C)=O | 0.76 µM
CCN(CC)CCCN(C(=O)Nc1c(Cl)cncc1Cl)c1nc(-c2ccc(F)cc2)cs1 | 0.24 µM
S=C(NCCN1CCOCC1)Nc1ccccc1 | 1.02 µM
Nc1nc(N)c2c3c(ccc2n1)NCCC3 | 0.73 µM
CN1CCCC(CN2CCN(Cc3cccc(-c4ccc(-c5nc6ccccc6[nH]5)cc4)c3)CC2)C1 (centres undefined) | 0.16 µM
FC(F)(F)COc1ccc(CNCCCCCCNCc2ccc(OCC(F)(F)F)c3ccccc23)c2ccccc12 | 0.4 µM
CN(C)c1ccc(CN2CCC(NC(=O)c3ccc(-c4cccc(F)c4)s3)CC2)cc1 | 1.49 µM
O=C(NC1CCCCC1)N(Cc1cccc(-c2cccc(CNC3CCCC3)c2)c1)C1CCN(Cc2ccccc2)CC1 | 0.74 µM
CCOc1ccc2c(NN=Cc3cc(OC)c(OC)cc3OC)cc(C)nc2c1 | 1 µM
COc1cc2nc(NCCc3ccccc3)nc(NCc3cc(C)no3)c2cc1OC | 0.24 µM
Oc1cccc(Nc2ccnc3cc(-c4ccncc4)ccc23)c1 | 1.05 µM
O=C1COC2(CN1CC1CCN(Cc3ccc(O)c(Cl)c3)C1)c1ccccc1-c1ccccc12 (centres undefined) | 1.06 µM
O=C(Nc1ccc(OC2CCN(Cc3ccc(F)cc3)C2)c(Cl)c1)c1ccc(F)cc1 (centres undefined) | 0.49 µM
C[C@H](Cc1ccc(Oc2ccc(C[C@@H](C)NC[C@H](O)c3cccc(Cl)c3)cc2)cc1)NC[C@H](O)c1cccc(Cl)c1 | 0.56 µM
O=C(Nc1cccc(CN2CCCN(Cc3ccc(O)cc3)CC2)c1)c1ccc(Cl)c(Cl)c1 | 0.26 µM
O=C(Nc1cccc(-c2nn3ncccc3c2-c2ccnc(Nc3ccccc3)n2)c1)c1c(F)cccc1F | 0.73 µM
c1ccc(Oc2ccc(Nc3ccnc4cc(-c5cccc(CN6CCOCC6)c5)ccc34)cc2)cc1 | 0.34 µM
Oc1ccc(CCNc2nc(NCc3cccc(OCc4cccc(F)c4)c3)nc(N3CCNCC3)n2)cc1 | 1.34 µM
O=C(/C=C/c1ccc(Cl)c(Cl)c1)N1CCC(NCc2c[nH]c3ccccc23)CC1 | 1.07 µM
CCNC(=O)Nc1cccc(-c2ccc(-c3nc4c(C)cccc4[nH]3)s2)c1 | 0.77 µM
C=CCc1ccc(C[C@H](NC(=O)OC(C)(C)C)C(=O)OC)cc1 | 0.81 µM
Cc1c(CNCCCNc2nc3ccccc3[nH]2)[nH]c2cc(Cl)cc(Cl)c12 | 0.23 µM
Cc1cc(-c2ccc3occ(CCN)c3c2)cnc1N | 0.88 µM
CC(C)NCc1cc(Nc2ccnc3cc(Cl)ccc23)ccc1O | 0.02 µM
COc1cc2nc(Nc3ccc4c(ccn4Cc4ccccc4)c3)nc(Nc3ccc4c(ccn4Cc4ccccc4)c3)c2cc1OC | 0.65 µM

SMILES | IC50
NC(N)=Nc1cccc(NC(=O)Nc2cccc(N=C(N)N)c2)c1 | 0.26 µM
COc1cc(NC(=O)/C=C/c2ccccc2Cl)cc(OCCN2CCC(O)(c3ccccc3)CC2)c1 | 0.17 µM
N=c1n(CCN2CCCC2)c2ccccc2n1CC(O)c1ccc(Cl)c(Cl)c1 (centres undefined) | 0.28 µM
CNc1ccc(CNCc2cccc(-c3ccc(-c4nc5ccccc5[nH]4)cc3)c2)cc1 | 0.3 µM
O=C(NC1CCCC1)c1ccc(N2CCC(NCc3cccc(C(F)(F)F)c3)CC2)cc1 | 1.33 µM
CC(=NNc1nc2ccccc2s1)c1ccccn1 | 1.12 µM
OC(CNc1ccnc(Nc2ccccc2)n1)c1cccc(C(F)(F)F)c1 (centres undefined) | 0.65 µM
CN1CCN(Cc2ccc(-c3cc4nccc(Nc5ccc(Oc6ccccc6)cc5)c4cc3Cl)o2)CC1 | 0.98 µM
OCCN1CCN(C(=S)Nc2ccccc2)CC1 | 0.94 µM
O=C(Nc1cccc(-c2ccc(-c3nc4ccc(F)cc4[nH]3)cc2)c1)c1ccncc1 | 0.28 µM
CCCCCCN1CCCN(Cc2ccc(C(=O)Nc3ccc(Cl)cc3)cc2)CC1 | 1.21 µM
COc1cc2nc(N3CCC(CNC(=O)c4ccc(-c5cccc(C#N)c5)cc4)CC3)nc(N)c2cc1OC | 0.14 µM
CCCCCCC(C)c1cc(O)c2c(c1)OC(C)(C)c1ccncc1-2 (centres undefined) | 0.8 µM
CCOc1cc(NCCSCc2nc[nH]c2C)nc2ccccc12 | 0.79 µM
Cc1cccc(CNc2nc(C)cc(NCCC(=O)Nc3ccccc3)n2)c1 | 1.05 µM
CCC(C)CC(=O)Nc1ccc(OC)c(S(=O)(=O)N[C@@H]2CCN(C#N)C2)c1 (some centres undefined) | 1.49 µM
Cc1cccc(CN2CCC(C(=O)Nc3ccc(-c4nc5ccccc5[nH]4)cc3)CC2)n1 | 0.92 µM
O=c1cc(NCCC(CNCCc2ccccc2)NCc2cc(Br)cc(Br)c2)[nH]c2ccccc12 (centres undefined) | 0.51 µM
O=C(Nc1ccc(S(=O)(=O)N2CCCCC2)cc1)c1cc(-c2cc(Cl)ccc2O)n[nH]1 | 0.81 µM
CCN(CCCN1CCCCC1)c1cc(C)nc(Nc2ccc(C)cc2)n1 | 0.41 µM
OCCNc1nc(Nc2cccc(O)c2)nc2ccccc12 | 0.39 µM
COc1ccc(Br)cc1/C=C/C(=O)Nc1ccc2c(c1)CCCN(C)C2 | 1.56 µM
Cc1cccc2[nH]c(-c3ccc(-c4ccc(CN5CCN(CC6CCCN(C)C6)CC5)cc4)cc3)nc12 (centres undefined) | 0.14 µM
COc1ccc(C=NNc2c3ccccc3nc3ccccc23)c2ccccc12 | 1.13 µM
